# Experimental data from US10131652B2, “Pyrimidinyloxy benzene derivatives as herbicides” (E. I. DU PONT DE NEMOURS AND COMPANY, priority 2014, dated 2018).
# Tests used:
# Assay type in all cases: in vivo
# [1] = tested on: Italian ryegrass (Lolium multiflorum); assay: Test B pre-/postemergence plant response
# Outline: (§1)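 Scoring used a 0–100 scale (100 = complete control) by visual comparison with untreated plants after approximately 10 days in the greenhouse. Compounds, in surfactant-containing non-phytotoxic solvent, were sprayed onto soil at planting or onto 2–10 cm seedlings.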
# kochia (Kochia scoparia) = assay: Test B pre-/postemergence plant response
# Outline: as §1
# [2] = tested on: ragweed (common ragweed, Ambrosia elatior); assay: Test B pre-/postemergence plant response
# Outline: as §1
# [3] = tested on: Italian ryegrass (Lolium multiflorum); assay: Test D pre-/postemergence plant response; conditions: Postemergence; for Plant response rating, Ryegrass, Italian: scale 0 to 100, 0 no effect, 100 complete control
# Outline: (§2)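 Visual rating, 0–100 scale (0 = no effect, 100 = complete control), versus untreated controls 13 to 15 days after treatment in greenhouse. Preemergence: seeds in loam/sand soil. Postemergence: 2 to 18 cm plants, 1- to 4-leaf stage, peat-based medium. Compounds formulated in non-phytotoxic solvent plus surfactant.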
# [4] = tested on: barnyardgrass (Echinochloa crus-galli); assay: Test D pre-/postemergence plant response; conditions: Postemergence; for Barnyardgrass plant response rating: scale 0 to 100 (0 no effect, 100 complete control); for Plant response rating, Barnyardgrass: scale 0 to 100, 0 no effect, 100 complete control
# Outline: as §2
# [5] = tested on: blackgrass (Alopecurus myosuroides); assay: Test D pre-/postemergence plant response; conditions: Postemergence; for Blackgrass plant response rating: scale 0 to 100 (0 no effect, 100 complete control); for Plant response rating, Blackgrass: scale 0 to 100, 0 no effect, 100 complete control
# Outline: as §2
# corn (Zea mays) = assay: Test D pre-/postemergence plant response; conditions: Postemergence; for Corn plant response rating: scale 0 to 100 (0 no effect, 100 complete control); for Plant response rating, Corn: scale 0 to 100, 0 no effect, 100 complete control
# Outline: as §2
# [6] = tested on: giant foxtail (Setaria faberii); assay: Test D pre-/postemergence plant response; conditions: Postemergence; for Foxtail, Giant plant response rating: scale 0 to 100 (0 no effect, 100 complete control); for Plant response rating, Foxtail, Giant: scale 0 to 100, 0 no effect, 100 complete control
# Outline: as §2
# [7] = tested on: lambsquarters (Chenopodium album); assay: Test D pre-/postemergence plant response; conditions: Postemergence; for Plant response rating, Lambsquarters: scale 0 to 100, 0 no effect, 100 complete control
# Outline: as §2
# [8] = tested on: large (Lg) crabgrass (Digitaria sanguinalis); assay: Test D pre-/postemergence plant response; conditions: Postemergence; for Crabgrass, Large plant response rating: scale 0 to 100 (0 no effect, 100 complete control); for Plant response rating, Crabgrass, Large: scale 0 to 100, 0 no effect, 100 complete control
# Outline: as §2
# [9] = tested on: morningglory (Ipomoea coccinea); assay: Test D pre-/postemergence plant response; conditions: Postemergence; for Plant response rating, Morningglory: scale 0 to 100, 0 no effect, 100 complete control
# Outline: as §2
# [10] = tested on: pigweed (Amaranthus retroflexus); assay: Test D pre-/postemergence plant response; conditions: Postemergence; for Plant response rating, Pigweed: scale 0 to 100, 0 no effect, 100 complete control
# Outline: as §2
# soybean (Glycine max) = assay: Test D pre-/postemergence plant response; conditions: Postemergence; for Plant response rating, Soybean: scale 0 to 100, 0 no effect, 100 complete control
# Outline: as §2
# [11] = tested on: velvetleaf (Abutilon theophrasti); assay: Test D pre-/postemergence plant response; conditions: Postemergence; for Plant response rating, Velvetleaf: scale 0 to 100, 0 no effect, 100 complete control
# Outline: as §2
# [12] = tested on: waterhemp (common waterhemp, Amaranthus rudis); assay: Test D pre-/postemergence plant response; conditions: Postemergence; for Plant response rating, Waterhemp: scale 0 to 100, 0 no effect, 100 complete control
# Outline: as §2
# [13] = 125 g ai/ha, postemergence, 0 to 100 scale, 0 no effect, 100 complete control
# [14] = Postemergence, 500 g ai/ha, 0 to 100 scale (0 no effect, 100 complete control)
# [15] = Preemergence, 125 g ai/ha, 0 to 100 scale (0 no effect, 100 complete control)
# [16] = Preemergence, 500 g ai/ha, 0 to 100 scale where 0 is no effect and 100 is complete control
# [17] = 31 g ai/ha, scale 0 to 100 (0 no effect, 100 complete control)
compound,measurement,setting,value
Cc1cc(-c2ccccc2Oc2ncc(Cl)cn2)no1 [Compound 153],"Plant response rating, Ryegrass, Italian",[1]; [13],30
same,"Plant response rating, Ryegrass, Italian",[1]; [14],60
same,"Ryegrass, Italian plant response rating",[1]; [15],0
same,"Plant response rating, Ryegrass, Italian",[1]; [16],20
same,"Plant response rating, Kochia",kochia (Kochia scoparia); [13],90
same,"Plant response rating, Kochia",kochia (Kochia scoparia); [14],90
same,Kochia plant response rating,kochia (Kochia scoparia); [15],20
same,"Plant response rating, Kochia",kochia (Kochia scoparia); [16],100
same,"Plant response rating, Ragweed",[2]; [13],20
same,"Plant response rating, Ragweed",[2]; [14],100
same,Ragweed plant response rating,[2]; [15],0
same,"Plant response rating, Ragweed",[2]; [16],40
same,"Ryegrass, Italian plant response rating",[3]; [17],0
same,"Plant response rating, Ryegrass, Italian",[3]; 62 g ai/ha,0
same,"Plant response rating, Ryegrass, Italian",[3]; 125 g ai/ha,0
same,Barnyardgrass plant response rating,[4]; 16 g ai/ha,5
same,Barnyardgrass plant response rating,[4]; 31 g ai/ha,5
same,"Plant response rating, Barnyardgrass",[4]; 62 g ai/ha,5
same,"Plant response rating, Barnyardgrass",[4]; 125 g ai/ha,5
same,Blackgrass plant response rating,[5]; 16 g ai/ha,0
same,Blackgrass plant response rating,[5]; 31 g ai/ha,0
same,"Plant response rating, Blackgrass",[5]; 62 g ai/ha,0
same,"Plant response rating, Blackgrass",[5]; 125 g ai/ha,0
same,Corn plant response rating,corn (Zea mays); 16 g ai/ha,0
same,Corn plant response rating,corn (Zea mays); 31 g ai/ha,0
same,"Plant response rating, Corn",corn (Zea mays); 62 g ai/ha,5
same,"Plant response rating, Corn",corn (Zea mays); 125 g ai/ha,5
same,"Foxtail, Giant plant response rating",[6]; 16 g ai/ha,0
same,"Foxtail, Giant plant response rating",[6]; 31 g ai/ha,0
same,"Plant response rating, Foxtail, Giant",[6]; 62 g ai/ha,5
same,"Plant response rating, Foxtail, Giant",[6]; 125 g ai/ha,5
same,Lambsquarters plant response rating,[7]; [17],35
same,"Plant response rating, Lambsquarters",[7]; 62 g ai/ha,30
same,"Plant response rating, Lambsquarters",[7]; 125 g ai/ha,50
same,"Crabgrass, Large plant response rating",[8]; 16 g ai/ha,0
same,"Crabgrass, Large plant response rating",[8]; 31 g ai/ha,5
same,"Plant response rating, Crabgrass, Large",[8]; 62 g ai/ha,5
same,"Plant response rating, Crabgrass, Large",[8]; 125 g ai/ha,10
same,Morningglory plant response rating,[9]; [17],5
same,"Plant response rating, Morningglory",[9]; 62 g ai/ha,15
same,"Plant response rating, Morningglory",[9]; 125 g ai/ha,25
same,Pigweed plant response rating,[10]; [17],20
same,"Plant response rating, Pigweed",[10]; 62 g ai/ha,40
same,"Plant response rating, Pigweed",[10]; 125 g ai/ha,70
same,Soybean plant response rating,soybean (Glycine max); [17],40
same,"Plant response rating, Soybean",soybean (Glycine max); 62 g ai/ha,70
same,"Plant response rating, Soybean",soybean (Glycine max); 125 g ai/ha,90
same,Velvetleaf plant response rating,[11]; [17],20
same,"Plant response rating, Velvetleaf",[11]; 62 g ai/ha,60
same,"Plant response rating, Velvetleaf",[11]; 125 g ai/ha,50
same,Waterhemp plant response rating,[12]; [17],10
same,"Plant response rating, Waterhemp",[12]; 62 g ai/ha,35
same,"Plant response rating, Waterhemp",[12]; 125 g ai/ha,65
